Experimental data taken from PubChem BioAssay (NCI).
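Dose response: 5 concentrations. Exposure: 48 h. Format: 96-well plates. Endpoint: linear interpolation; highest concentration if not reached. GI50 marks 50% less growth. TGI: concentration producing complete growth inhibition.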

Tests used:
Test in all cases: NCI anticancer screen, dose series, 48 h
[1] = test system: NCI-H23 lung
[2] = test system: NCI-H460 lung
[3] = test system: SK-OV-3 ovarian
[4] = test system: HOP-92 NSCLC
[5] = test system: NCI-H226 lung
[6] = test system: MDA-MB-231 breast
[7] = test system: K-562 leukemia
[8] = test system: 786-0 renal
[9] = test system: SF-539 CNS
[10] = test system: BT-549 breast
[11] = test system: SK-MEL-28 melanoma
[12] = test system: M14 melanoma
[13] = test system: PC-3 prostate
[14] = test system: HCT-116 colon
[15] = test system: MALME-3M melanoma
[16] = test system: SR leukemia
[17] = test system: NCI/ADR-RES ovarian
[18] = test system: SK-MEL-5 melanoma
[19] = test system: ACHN renal
[20] = test system: EKVX NSCLC
[21] = test system: SNB-75 CNS
[22] = test system: IGROV1 ovarian
[23] = test system: RPMI-8226 leukemia
[24] = test system: SK-MEL-2 melanoma
[25] = test system: NCI-H522 lung
[26] = test system: LOX IMVI melanoma
[27] = test system: OVCAR-3 ovarian
[28] = test system: HL-60(TB) leukemia
[29] = test system: UACC-257 melanoma
[30] = test system: HS 578T breast
[31] = test system: A549 NSCLC
[32] = test system: OVCAR-5 ovarian
[33] = test system: SW-620 colon
[34] = test system: TK-10 renal
[35] = test system: UO-31 renal
[36] = test system: SN12C renal
[37] = test system: DU-145 prostate
[38] = test system: SNB-19 CNS
[39] = test system: A498 renal
[40] = test system: MDA-MB-435
[41] = test system: RXF 393 renal
[42] = test system: KM12 colon
[43] = test system: COLO 205 colon
[44] = test system: SF-268 CNS
[45] = test system: MCF7 breast
[46] = test system: OVCAR-8 ovarian
[47] = test system: CCRF-CEM leukemia
[48] = test system: HCT-15 colon
[49] = test system: MOLT-4 leukemia
[50] = test system: U251 CNS
[51] = test system: HT29 colon
[52] = test system: SF-295 CNS
[53] = test system: CAKI-1 renal
[54] = test system: HCC-2998 colon
[55] = test system: T-47D breast
[56] = test system: UACC-62 melanoma
[57] = test system: HOP-62 NSCLC
[58] = test system: OVCAR-4 ovarian

**Q.** `COc1cnc2c(c1)C(=O)c1c-2n(CCCNCC2CC2)c(=O)c2cc(F)ccc12` was tested. Which GI50 [1] did it give?
**A.** 577 nM

**Q.** And the TGI [1]?
**A.** 1950 nM

**Q.** What about the GI50 [2] of the same compound?
**A.** 104 nM

**Q.** What about the TGI [2] of the same compound?
**A.** 800 nM

**Q.** And the GI50 [3]?
**A.** 939 nM

**Q.** What about the TGI [3] of the same compound?
**A.** 2580 nM

**Q.** And the GI50 [4]?
**A.** 1750 nM

**Q.** And the TGI [4]?
**A.** 7360 nM

**Q.** What about the GI50 [5] of the same compound?
**A.** 751 nM

**Q.** And the TGI [5]?
**A.** 2020 nM

**Q.** What about the GI50 [6] of the same compound?
**A.** 943 nM

**Q.** What about the TGI [6] of the same compound?
**A.** 3440 nM

**Q.** What about the GI50 [7] of the same compound?
**A.** 229 nM

**Q.** What about the TGI [7] of the same compound?
**A.** 14500 nM

**Q.** What about the GI50 [8] of the same compound?
**A.** 386 nM

**Q.** And the TGI [8]?
**A.** 1380 nM

**Q.** And the GI50 [9]?
**A.** 581 nM

**Q.** And the TGI [9]?
**A.** 1920 nM

**Q.** And the GI50 [10]?
**A.** 1110 nM

**Q.** What about the TGI [10] of the same compound?
**A.** 3880 nM

**Q.** And the GI50 [11]?
**A.** 1820 nM

**Q.** What about the TGI [11] of the same compound?
**A.** 4570 nM

**Q.** What about the GI50 [12] of the same compound?
**A.** 736 nM

**Q.** And the TGI [12]?
**A.** 3080 nM

**Q.** And the GI50 [13]?
**A.** 760 nM

**Q.** And the TGI [13]?
**A.** 4930 nM

**Q.** What about the GI50 [14] of the same compound?
**A.** 284 nM

**Q.** And the TGI [14]?
**A.** 1400 nM

**Q.** And the GI50 [15]?
**A.** 1030 nM

**Q.** And the TGI [15]?
**A.** 3150 nM

**Q.** What about the GI50 [16] of the same compound?
**A.** 117 nM

**Q.** And the TGI [16]?
**A.** 1790 nM

**Q.** And the GI50 [17]?
**A.** 609 nM

**Q.** And the TGI [17]?
**A.** 3520 nM

**Q.** And the GI50 [18]?
**A.** 1140 nM

**Q.** And the TGI [18]?
**A.** 2650 nM

**Q.** And the GI50 [19]?
**A.** 191 nM

**Q.** What about the TGI [19] of the same compound?
**A.** 717 nM

**Q.** What about the GI50 [20] of the same compound?
**A.** 1510 nM

**Q.** What about the TGI [20] of the same compound?
**A.** 5640 nM

**Q.** And the GI50 [21]?
**A.** 480 nM

**Q.** What about the TGI [21] of the same compound?
**A.** 3300 nM

**Q.** And the GI50 [22]?
**A.** 641 nM

**Q.** What about the TGI [22] of the same compound?
**A.** 4330 nM

**Q.** And the GI50 [23]?
**A.** 474 nM

**Q.** What about the TGI [23] of the same compound?
**A.** 2870 nM

**Q.** And the GI50 [24]?
**A.** 3680 nM

**Q.** And the TGI [24]?
**A.** 8400 nM

**Q.** And the GI50 [25]?
**A.** 275 nM

**Q.** What about the TGI [25] of the same compound?
**A.** 1740 nM

**Q.** And the GI50 [26]?
**A.** 206 nM

**Q.** What about the TGI [26] of the same compound?
**A.** 923 nM

**Q.** What about the GI50 [27] of the same compound?
**A.** 1110 nM

**Q.** And the TGI [27]?
**A.** 3800 nM

**Q.** What about the GI50 [28] of the same compound?
**A.** 199 nM

**Q.** What about the TGI [28] of the same compound?
**A.** 1680 nM

**Q.** What about the GI50 [29] of the same compound?
**A.** 1780 nM

**Q.** And the TGI [29]?
**A.** 5240 nM

**Q.** And the GI50 [30]?
**A.** 2490 nM

**Q.** And the TGI [30]?
**A.** 13900 nM

**Q.** And the GI50 [31]?
**A.** 262 nM

**Q.** What about the TGI [31] of the same compound?
**A.** 1550 nM

**Q.** And the GI50 [32]?
**A.** 1020 nM

**Q.** And the TGI [32]?
**A.** 3070 nM

**Q.** What about the GI50 [33] of the same compound?
**A.** 227 nM

**Q.** And the TGI [33]?
**A.** 1860 nM

**Q.** And the GI50 [34]?
**A.** 1560 nM

**Q.** And the TGI [34]?
**A.** 4660 nM

**Q.** What about the GI50 [35] of the same compound?
**A.** 304 nM

**Q.** What about the TGI [35] of the same compound?
**A.** 1590 nM

**Q.** And the GI50 [36]?
**A.** 297 nM

**Q.** What about the TGI [36] of the same compound?
**A.** 2690 nM

**Q.** What about the GI50 [37] of the same compound?
**A.** 475 nM

**Q.** What about the TGI [37] of the same compound?
**A.** 2440 nM

**Q.** What about the GI50 [38] of the same compound?
**A.** 453 nM

**Q.** And the TGI [38]?
**A.** 3890 nM

**Q.** And the GI50 [39]?
**A.** 969 nM

**Q.** What about the TGI [39] of the same compound?
**A.** 4110 nM

**Q.** And the GI50 [40]?
**A.** 1210 nM

**Q.** What about the TGI [40] of the same compound?
**A.** 3980 nM

**Q.** And the GI50 [41]?
**A.** 855 nM

**Q.** And the TGI [41]?
**A.** 2590 nM

**Q.** What about the GI50 [42] of the same compound?
**A.** 1400 nM

**Q.** What about the TGI [42] of the same compound?
**A.** 5730 nM

**Q.** And the GI50 [43]?
**A.** 570 nM

**Q.** What about the TGI [43] of the same compound?
**A.** 3480 nM

**Q.** And the GI50 [44]?
**A.** 1060 nM

**Q.** And the TGI [44]?
**A.** 8000 nM

**Q.** What about the GI50 [45] of the same compound?
**A.** 76.6 nM

**Q.** And the TGI [45]?
**A.** 1350 nM

**Q.** What about the GI50 [46] of the same compound?
**A.** 801 nM

**Q.** And the TGI [46]?
**A.** 3830 nM

**Q.** And the GI50 [47]?
**A.** 190 nM

**Q.** And the TGI [47]?
**A.** 4610 nM

**Q.** What about the GI50 [48] of the same compound?
**A.** 402 nM

**Q.** What about the TGI [48] of the same compound?
**A.** 1810 nM

**Q.** And the GI50 [49]?
**A.** 77.1 nM

**Q.** And the TGI [49]?
**A.** 8900 nM

**Q.** What about the GI50 [50] of the same compound?
**A.** 346 nM

**Q.** And the TGI [50]?
**A.** 2360 nM

**Q.** And the GI50 [51]?
**A.** 495 nM

**Q.** And the TGI [51]?
**A.** 2100 nM

**Q.** And the GI50 [52]?
**A.** 295 nM

**Q.** What about the TGI [52] of the same compound?
**A.** 1680 nM

**Q.** What about the GI50 [53] of the same compound?
**A.** 216 nM

**Q.** What about the TGI [53] of the same compound?
**A.** 1830 nM

**Q.** And the GI50 [54]?
**A.** 715 nM

**Q.** And the TGI [54]?
**A.** 2580 nM

**Q.** What about the GI50 [55] of the same compound?
**A.** 488 nM

**Q.** And the TGI [55]?
**A.** 3100 nM

**Q.** And the GI50 [56]?
**A.** 561 nM

**Q.** And the TGI [56]?
**A.** 2260 nM

**Q.** What about the GI50 [57] of the same compound?
**A.** 380 nM

**Q.** What about the TGI [57] of the same compound?
**A.** 2150 nM

**Q.** What about the GI50 [58] of the same compound?
**A.** 1590 nM

**Q.** What about the TGI [58] of the same compound?
**A.** 3670 nM
